Data reported in patent publication US9066517B2, “Pest control agents for honeybee parasitic pests, and pest control method for honeybee parasitic pests using the pest control agents” (MEIJI SEIKA PHARMA CO., LTD., priority 2013, dated 2015).

Key:
Type in all cases: in vivo
Apis mellifera [1] = test: Test Example 2: mortality of honeybees after dipping the abdomens; details: rate 10 ppm, abdomens dipped into acetone solution, adult Apis mellifera
Source text: (§1) After anesthesized with carbonic acid gas, adults of Apis mellifera collected from a hive were grouped in test cages such that there were 10 to 20 heads per cage. Thereafter, the Apis mellifera were subjected to a chemical treatment by dipping the abdomens into an acetone solution of the compound according to the present invention at predetermined concentrations. After the Apis mellifera air-dried, the recovery of the Apis mellifera from the anesthesia was confirmed. Then, the cages were lidded to leave the Apis mellifera to stand in a thermostatic chamber under dark at 25° C. Note that 50% sucrose water absorbed to absorbent cotton was provided as a bait during the test period.
(§2) The number of Apis mellifera survived at 72 hours after the chemical treatment as well as the numbers of Varroa destructor parasitizing the Apis mellifera before the chemical treatment and at 72 hours after the chemical treatment were examined. The mortality and the parasitism rate were calculated by the following equations. The test was conducted in duplicate. Mortality(%)={((100−survival rate in chemical treated plot)−(100−survival rate in acetone treated plot))/(100−mortalityin acetone treated plot)}×100 Parasitism rate(%)=(number of heads of honeybees parasitized by Varroa destructor/number of honeybees survived)×100

Varroa destructor [2] = test: Test Example 2: pest control test of Varroa destructor, parasitism rate; details: for Parasitism rate before treatment (%): rate 10 ppm group, before chemical treatment (baseline); for Parasitism rate at 72 hours after treatment (%) / Change in parasitism rate (%)*: rate 10 ppm; for Parasitism rate at 72 hours after treatment (%): abdomens dipped; for Change in parasitism rate (%)*: {100 − (parasitism rate at 72 hours after treatment/parasitism rate before treatment) × 100}
Source text: as §1, §2

Apis mellifera [3] = test: Test Example 1: mortality of honeybees after topical application (micro applicator); details: acetone solution applied to abdomens of adult Apis mellifera infected with Varroa destructor, 48 hours after treatment
Procedure: (§3) After anesthesized with carbonic acid gas, adults of Apis mellifera infected with Varroa destructor were subjected to a chemical treatment by applying the abdomens with an acetone solution of the compound according to the present invention at predetermined concentrations using a micro applicator. After the treatment, Apis mellifera were transferred into a plastic case and left to stand in a thermostatic chamber under dark at 25° C. During the test period, 50% sucrose water absorbed to absorbent cotton was provided as a bait.
(§4) Forty eight hours after the chemical treatment, the number of Apis mellifera survived and the number of parasitic Varroa destructor were examined. The mortality of the honeybees and the preventive value against Varroa destructor were calculated by the following equations. Mortality(%)={((100−survival rate in chemical treated plot)−(100−survival rate in acetone treated plot))/(100−mortality in acetone treated plot)}×100 Preventive value={(parasitism rate in untreated plot−parasitism rate in chemical treated plot)/(parasitism rate in untreated plot)}×100

Varroa destructor [4] = test: Test Example 1: pest control test of Varroa destructor, preventive value; details: application dose 10 μg, Varroa destructor on adult Apis mellifera, 48 hours after treatment
Procedure: as §3, §4

SMILES	Mortality at 72 hours after treatment (%) (Apis mellifera [1])	Parasitism rate before treatment (%) (Varroa destructor [2])	Parasitism rate at 72 hours after treatment (%) (Varroa destructor [2])	Change in parasitism rate (%)* (Varroa destructor [2]) [%]	Mortality (%) (Apis mellifera [3]; application dose 10 μg)	Preventive value (Varroa destructor [4])	Mortality (%) (Apis mellifera [3]; application dose 5 μg)
FC(F)(F)C(=S)N=c1ccccn1Cc1ccc(Cl)nc1 [Compound 1-20, N-[1-((6-chloropyridin-3-yl)methyl)pyridin-2(1H)-ylidene]-2,2,2-trifluoroethanethioamide]	0	51	23	−55			
O=C(N=c1ccccn1Cc1ccc(Cl)nc1)C(F)(F)F [Compound P212, N-[1-((6-chloropyridin-3-yl)methyl)pyridin-2(1H)-ylidene]-2,2,2-trifluoroacetamide]	0	17	10	−41	0	100	
CC(C)[C@H](Nc1ccc(C(F)(F)F)cc1Cl)C(=O)OC(C#N)c1cccc(Oc2ccccc2)c1 (some centres unmarked) [Fluvalinate, reference compound]							64
